The values below come from ChEMBL document CHEMBL4706612 (Eur J Med Chem, 2021).

The nature of assay [1]: Inhibition of human MetAp1a by Morrison method.
Assay [2] is described as follows: Inhibition of Vibrio cholerae MetAp1a by Morrison method.
Assay [3] is described as follows: Inhibition of Vibrio parahaemolyticus MetAp1a by Morrison method.
Assay [4] is described as follows: Inhibition of Vibrio coralliilyticus MetAp1a by Morrison method.

For `Cc1nc(-c2ccccn2)nc(O)c1CC1CC1`, the Ki in assay [1] was 130 nM; in assay [2] it was 320 nM; in assay [3], 80 nM; in assay [4], 9290 nM.
Taken in the same sequence, the figures for `Cc1cc(O)nc(-c2ccccn2)n1` were 620 nM, 300 nM, 210 nM and 6800 nM.
As to `Cc1nc(-c2ccccn2)nc(N2CCN(CCO)CC2)c1Cl`, the inhibition constant Ki in assay [2] was determined as 600 nM; in assay [3], 3710 nM.
Regarding `CC(C)S(=O)(=O)c1cnc(-c2ccccn2)nc1N`, the inhibition constant (Ki) turned out to be 220 nM in assay [1], 60 nM in assay [2], 35000 nM in assay [3] and 49300 nM in assay [4].
With `FC(F)(F)c1cc(Nc2cc(Cl)cc(Cl)c2)nc(-c2ccccn2)n1`, the inhibition constant (Ki) in assay [2] was determined as 60 nM; in assay [3], 140 nM.
Take `CCN(CC)C(=O)Oc1nc(-c2ccccn2)nc(COC)c1CC1CC1`: the values for the Ki in assay [1], in assay [2] and in assay [3] were 450 nM, 2470 nM and 2810 nM, respectively.
Turning to `Cc1nc(-c2ccccn2)nc(SCC(=O)c2ccc(F)cc2)c1Cl`, the Ki in assay [1] worked out at 2350 nM; in assay [2], 1890 nM; in assay [3], 1900 nM.
`COc1ccc(C(=O)CSc2nc(-c3ccccn3)nc(C)c2Cl)cc1`: the Ki is 1430 nM in assay [2] and 5710 nM in assay [3].
`Cc1cc(S)nc(-c2ccccn2)n1`: the Ki worked out at 150 nM in assay [1], 120 nM in assay [2], 200 nM in assay [3] and 16200 nM in assay [4].
As for `Oc1cc(C(F)(F)F)nc(-c2ccccn2)n1`, the Ki in assay [1] is 100 nM; in assay [2], 150 nM; in assay [3], 90 nM; in assay [4], 13100 nM.
For the compound `Cc1nc(-c2ccccn2)nc(NC2CCN(c3ncc(C(F)(F)F)cc3Cl)CC2)c1Cl`, the Ki in assay [2] was 4780 nM; in assay [3], 4560 nM.
Regarding `CC(=O)Nc1cc(O)nc(-c2ccccn2)n1`, the Ki turned out to be 1480 nM in assay [1], 90 nM in assay [2], 1110 nM in assay [3] and 5120 nM in assay [4].
As for `Cc1nc(-c2ccccn2)nc(NCCNc2cccc(C(F)(F)F)n2)c1Cl`, the results for the inhibitory constant (Ki) in assay [2] and in assay [3] were 3560 nM and 7910 nM, respectively.
For `c1ccc(-c2ccccn2)nc1`, the Ki in assay [1] amounted to 390 nM; in assay [2] it was 2840 nM; in assay [3] it was 2910 nM; in assay [4], 2830 nM.
With `COCc1nc(-c2ccccn2)nc(O)c1CC1CC1`, the Ki in assay [1] was 290 nM; in assay [2] it was 160 nM; in assay [3] it was 250 nM; in assay [4], 27500 nM.
Regarding `CCOC(=O)c1cnc(-c2ccccn2)nc1O`, the inhibition constant (Ki) in assay [1] was 510 nM; in assay [2] it was 110 nM; in assay [3], 1420 nM; in assay [4], 5930 nM.
Turning to `Cc1nc(-c2ccccn2)nc(N(C)c2ccccc2)c1Cl`, the Ki in assay [1] came out at 770 nM; in assay [2], 490 nM; in assay [3], 240 nM.
In the case of `Cc1nc(-c2ccccn2)nc(N2CCN(C)CC2)c1Cl`, the figures for the inhibitory constant (Ki) in assay [1], in assay [2] and in assay [3] were 290 nM, 200 nM and 480 nM, respectively.
For the compound `Cc1nc(-c2ccc(C(F)(F)F)cn2)nc(N2CCCCC2)c1Cl`, the inhibition constant Ki in assay [1] worked out at 55800 nM; in assay [2], 4610 nM.
As to `CCCc1nc(-c2ccccn2)nc(O)c1CC1CC1`, the Ki was determined as 1380 nM in assay [1], 70 nM in assay [2], 1130 nM in assay [3] and 9130 nM in assay [4].
For the compound `Cc1nc(-c2ccccn2)nc(O)c1Cc1c(Cl)cccc1Cl`, the Ki is 230 nM in assay [2], 160 nM in assay [3] and 10200 nM in assay [4].
As for `Cc1nc(-c2ccccn2)nc(SCC(=O)N2CCOCC2)c1Cl`, the inhibition constant (Ki) in assay [1] amounted to 170 nM; in assay [2] it was 7960 nM; in assay [3], 12600 nM.
The compound `FC(F)(F)c1nc(-c2ccccn2)ncc1-c1nnnn1-c1ccc(Cl)cc1` returned an inhibition constant (Ki) in assay [3] of 10800 nM.
Take `Cc1nc(-c2ccccn2)nc(N2CCCN(Cc3ccc(Cl)cc3Cl)CC2)c1Cl`: the Ki was 850 nM in assay [1], 730 nM in assay [2] and 3230 nM in assay [3].
The matching figures for `Cc1cc(Oc2ccc(Cl)cc2)nc(-c2ccccn2)n1`: 230 nM, 730 nM and 350 nM.
Turning to `CSc1nc(-c2ccccn2)nc(N)c1C#N`, the figures for the inhibition constant Ki in assay [1], in assay [2] and in assay [3] were 210 nM, 680 nM and 130 nM, respectively.
As to `Oc1nc(-c2ccccn2)nc2c1CSCC2`, the Ki is 760 nM in assay [1], 39000 nM in assay [2], 24000 nM in assay [3] and 7650 nM in assay [4].
With `Cc1nc(-c2ccc(C(F)(F)F)cn2)nc(Sc2ccc(Cl)cc2)c1Cl`, the Ki in assay [2] is 6960 nM; in assay [3] it was 16200 nM.
The matching figures for `Cc1nc(-c2ccccn2)nc(N2CCN(c3ncnc4scc(-c5ccccc5)c34)CC2)c1Cl`: 480 nM and 1950 nM.
Turning to `Cc1cc(Oc2cc(Cl)cc(Cl)c2)nc(-c2ccccn2)n1`, the Ki was found to be 4210 nM in assay [1], 50 nM in assay [2] and 280 nM in assay [3].
`Cc1nc(-c2ccccn2)nc(NCCc2ccccc2)c1Cl`: the Ki came to 510 nM in assay [2] and 3730 nM in assay [3].
With `Nc1cc(O)nc(-c2ccccn2)n1`, the inhibitory constant (Ki) was 650 nM in assay [1], 80 nM in assay [2], 240 nM in assay [3] and 11900 nM in assay [4].
`CCCc1nc(-c2ccccn2)nc(OC(=O)N(C)C)c1Cc1c(F)cccc1Cl`: the Ki in assay [1] stood at 180 nM; in assay [2] it was 70 nM; in assay [3] it was 600 nM.
`Cc1nc(-c2ccccn2)nc(N2CCOCC2)c1Cl`: the inhibitory constant (Ki) stood at 110 nM in assay [1], 880 nM in assay [2] and 1620 nM in assay [3].
Take `CCCCCc1c(C)nc(-c2ccccn2)nc1O`: the Ki in assay [1] is 70 nM; in assay [2], 720 nM; in assay [3], 3310 nM; in assay [4] it was 11600 nM.
For `FC(F)(F)c1cccc(-c2nc(-c3ccccn3)ncc2-c2nnnn2-c2ccccc2)c1`, the figures for the Ki in assay [1], in assay [2] and in assay [3] were 43900 nM, 1130 nM and 2730 nM, respectively.
For `C=CC(C)c1c(O)nc(-c2ccccn2)nc1CCC` (centres undefined), the inhibitory constant (Ki) is 80 nM in assay [1], 310 nM in assay [2], 150 nM in assay [3] and 7240 nM in assay [4].
